US6545032B1, “Synthesis of [3,5,7]-H-imidazo[1,5-a] imidazol-2(3H)-one compounds” (Torrey Pines Institute for Molecular Studies, priority 1999, dated 2003)

Assays:
kappa opiate receptor = molecular target: T1, kappa opiate receptor (Cavia porcellus, UniProt P41144); test: Inhibition of tritiated U69,593 binding to the kappa opiate receptor in guinea pig brain homogenates; set-up: Mean: unit not given beside the values; conditions: 3 nm tritiated U69,593, guinea pig brain membranes; for % Bound: [3H]U69,593 bound; for % Inhibition: inhibition of [3H]U69,593 binding; for Mean: mean bound radioactivity of [3H]U69,593, 2.5 hours 25° C.; for Minus NSB: mean minus non-specific binding
T1 construct: guinea pig cortices and cerebella were homogenized in 40 mL of Buffer A; from tissue; host or cells: guinea pig cortices and cerebella, crude membrane suspension
T1 sequence (P41144 whole entry): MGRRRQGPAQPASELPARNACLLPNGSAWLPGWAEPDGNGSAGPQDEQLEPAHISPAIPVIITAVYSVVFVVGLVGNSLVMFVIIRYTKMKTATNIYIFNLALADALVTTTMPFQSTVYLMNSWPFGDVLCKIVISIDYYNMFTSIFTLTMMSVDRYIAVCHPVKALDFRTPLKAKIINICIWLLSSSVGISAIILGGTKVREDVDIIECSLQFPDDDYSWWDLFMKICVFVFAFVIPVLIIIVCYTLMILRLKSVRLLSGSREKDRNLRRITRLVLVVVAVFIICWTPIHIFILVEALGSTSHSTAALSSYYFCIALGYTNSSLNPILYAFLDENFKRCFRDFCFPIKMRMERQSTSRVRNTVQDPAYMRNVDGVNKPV
Procedure: The above-prepared library of individual compounds was screened for the ability to inhibit the binding of tritiated Compound U69,593 that is known to bind specifically to the kappa opiate receptor present in guinea pig brain homogenates following literature procedures. [Dooley et al., J. Biol. Chem., 273(30) 18848-18856 (1998)]
Briefly, guinea pig cortices and cerebella were homogenized in 40 mL of Buffer A [50 mM Tris-HCl, pH 7.4] at 4° C. Homogenates were centrifuged [Beckman® J2-HC, 35, 300×g] for 10 minutes. The pellets were resuspended in fresh buffer and incubated at 37° C. for 40 minutes. Following incubation, the suspensions were centrifuged as before, the resulting pellets resuspended in 100 volumes of Tris buffer, and the suspensions combined. Membrane suspensions were prepared and used on the same day. Protein content of the crude homogenates was determined by the method of Bradford, Anal. Biochem., 72:248-252 (1976).
Each assay tube contained 0.5 mL of membrane suspension, 3 nm of tritiated Compound U69,593 [(5a,7a,8b)-(−)-N-methyl-N-(7-(1-pyrrolidinyl)-1-oxaspiro(4,5)dec-8-yl)-benzeneacetamide; Lahti et al., European J. Pharmacol., 109:281-284(199-85)] in a total volume of 0.65 mL. Assay tubes were incubated for 2.5 hours a 25° C. The assay was then filtered through GF-B filters on a Tomec™ harvester (Orange, Conn.). The filters were subsequently washed with 6 mL of 50 mM Tris-HC1, pH 7.4 at 4° C. Bound radioactivity was counted on a Wallace™ Beta-plate Liquid Scintillation Counter (Piscataway, N.J.). Unlabeled U50, 488 [(trans-(dl)-3,4-dichloro-N-methyl-N-[2-(1-pyrrolidinyl)cyclohexyl]-benzeneacetamide) methane sulfonate hydrate; Lahti et al., Life Sci., 31:2257-xx(1982) and Von Voightlander et al., J. Pharmacol. Exp. Ther., 224:7 (1983)] was used as a competitive inhibitor to generate a standard curve and determine nonspecific binding. The results of these assays are shown in the table, below, wherein the “R” groups are as discussed for Example 1.

mu opiate receptor = molecular target: T2, mu opiate receptor (Rattus norvegicus, UniProt P33535); test: Inhibition of [3H]DAMGO binding to the mu opiate receptor in rat brain homogenates; set-up: Mean: unit not given beside the values; conditions: 0.08 mg of compound per milliliter, 7 nM 3H-labeled DAMGO, rat brain membranes; for % Bound: [3H]DAMGO bound; for Mean: mean bound radioactivity of [3H]DAMGO; for Minus NSB*: mean minus non-specific binding; for % Inhibition: percent inhibition of DAMGO binding
T2 construct: from tissue; host or cells: rat brain membranes/homogenate
T2 sequence (P33535 whole entry): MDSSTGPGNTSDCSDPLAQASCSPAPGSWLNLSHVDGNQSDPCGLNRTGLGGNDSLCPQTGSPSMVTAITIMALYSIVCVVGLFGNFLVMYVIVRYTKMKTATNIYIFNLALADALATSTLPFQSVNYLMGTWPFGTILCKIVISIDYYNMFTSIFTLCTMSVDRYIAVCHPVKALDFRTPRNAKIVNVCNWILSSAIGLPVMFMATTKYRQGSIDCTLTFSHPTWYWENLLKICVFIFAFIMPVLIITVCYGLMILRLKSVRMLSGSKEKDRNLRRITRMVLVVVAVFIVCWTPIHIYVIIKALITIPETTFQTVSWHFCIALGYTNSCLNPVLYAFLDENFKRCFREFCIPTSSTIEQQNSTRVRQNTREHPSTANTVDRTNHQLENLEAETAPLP
Procedure: The previously prepared [3,5,7]-1H-imidazo[1,5-a]-imidazol-2(3H)-one library of individual compounds was screened for the ability to inhibit the binding of [^3H] [D-Ala^2,MePhe^4,Gly^5-ol]enkephalin (DAMGO) that is known to bind specifically to the mu opiate receptor present in rat brain homogenates following literature procedures. [Dooley et al., Science, 266:2019(1994); U.S. Pat. No. 5,763,193.]
Preparation of rat brain membranes and the receptor binding assay were carried out as described in Dooley et al., Life Sci., 52:1509(1993). Each tube in the screening assay contained 0.08 mg of compound mixture per milliliter, 0.5 mL of membrane suspension (0.1 mg of protein), 7 nM ^3H-labeled DAMGO [specific activity 36 Ci/mmol, obtained from the National Institute on Drug Abuse (NIDA) repository through Chiron Mimotopes PeptideSystems (San Diego, Calif.) and […] of peptide mixture in 50 mM Tris-HCl buffer (pH 7.4). The final volume was 0.65 mL. The results of these screenings are shown in the table, below, wherein the “R” groups are as discussed for Example 1. The results are reported as percent inhibition of DAMGO binding.

## Cc1nc(C(C)C)c2n1C(Cc1ccccc1)C(=O)N2 (centres unmarked) [Pool 30]
Kappa opiate receptor
  % Bound: 74.884%
  % Inhibition: 25.116%
  Mean: 1682.8
  Minus NSB: 775.80
Mu opiate receptor
  % Bound: 65%
  Mean: 929.9
  Minus NSB*: 621.90
  % Inhibition: 35%

## Cc1ncc2n1C(C(C)C)C(=O)N2 (centres unmarked) [Pool 34]
Kappa opiate receptor
  % Bound: 79.117%
  % Inhibition: 20.883%
  Mean: 1726.65
  Minus NSB: 819.65
Mu opiate receptor
  % Bound: 68%
  Mean: 956.4
  Minus NSB*: 648.40
  % Inhibition: 32%

## Cc1nc(C)n2c1NC(=O)C2C(C)C (centres unmarked) [Pool 35]
Kappa opiate receptor
  % Bound: 77.693%
  % Inhibition: 22.307%
  Mean: 1711.9
  Minus NSB: 804.90
Mu opiate receptor
  % Bound: 47%
  Mean: 753.5
  Minus NSB*: 445.50
  % Inhibition: 53%

## Cc1nc(C(C)C)c2n1C(C(C)C)C(=O)N2 (centres unmarked) [Pool 36]
Kappa opiate receptor
  % Bound: 84.976%
  % Inhibition: 15.024%
  Mean: 1787.35
  Minus NSB: 880.35
Mu opiate receptor
  % Bound: 66%
  Mean: 940.6
  Minus NSB*: 632.60
  % Inhibition: 34%

## Cc1nc(CC(C)C)c2n1C(C(C)C)C(=O)N2 (centres unmarked) [Pool 37]
Kappa opiate receptor
  % Bound: 62.973%
  % Inhibition: 37.027%
  Mean: 1559.4
  Minus NSB: 652.40
Mu opiate receptor
  % Bound: 66%
  Mean: 932.9
  Minus NSB*: 624.90
  % Inhibition: 34%

## CCC(C)c1nc(C)n2c1NC(=O)C2C(C)C (centres unmarked) [Pool 38]
Kappa opiate receptor
  % Bound: 68.639%
  % Inhibition: 31.361%
  Mean: 1618.1
  Minus NSB: 711.10
Mu opiate receptor
  % Bound: 40%
  Mean: 687.75
  Minus NSB*: 379.75
  % Inhibition: 60%

## Cc1nc(CCCCN)c2n1C(C(C)C)C(=O)N2 (centres unmarked) [Pool 41]
Kappa opiate receptor
  % Bound: 51.853%
  % Inhibition: 48.147%
  Mean: 1444.2
  Minus NSB: 537.20
Mu opiate receptor
  % Bound: 58%
  Mean: 858.1
  Minus NSB*: 550.10
  % Inhibition: 42%

## Cc1nc(CCCNC(=N)N)c2n1C(C(C)C)C(=O)N2 (centres unmarked) [Pool 42]
Kappa opiate receptor
  % Bound: 48.200%
  % Inhibition: 51.800%
  Mean: 1406.35
  Minus NSB: 499.35
Mu opiate receptor
  % Bound: 29%
  Mean: 581.65
  Minus NSB*: 273.65
  % Inhibition: 71%

## CCCCc1nc(C)n2c1NC(=O)C2C(C)C (centres unmarked) [Pool 44]
Kappa opiate receptor
  % Bound: 110.299%
  % Inhibition: −10.299%
  Mean: 2049.7
  Minus NSB: 1142.70
Mu opiate receptor
  % Bound: 67%
  Mean: 947.55
  Minus NSB*: 639.55
  % Inhibition: 33%

## CCCc1nc(C)n2c1NC(=O)C2C(C)C (centres unmarked) [Pool 45]
Kappa opiate receptor
  % Bound: 85.275%
  % Inhibition: 14.725%
  Mean: 1790.45
  Minus NSB: 883.45
Mu opiate receptor
  % Bound: 62%
  Mean: 902.55
  Minus NSB*: 594.55
  % Inhibition: 38%

## Cc1nc(CC2CCCCC2)c2n1C(C(C)C)C(=O)N2 (centres unmarked) [Pool 46]
Kappa opiate receptor
  % Bound: 121.815%
  % Inhibition: −21.815%
  Mean: 2169
  Minus NSB: 1262.00
Mu opiate receptor
  % Bound: 60%
  Mean: 881.4
  Minus NSB*: 573.40
  % Inhibition: 40%

## Cc1nc(Cc2ccccc2)c2n1C(C(C)C)C(=O)N2 (centres unmarked) [Pool 47]
Kappa opiate receptor
  % Bound: 104.469%
  % Inhibition: −4.469%
  Mean: 1989.3
  Minus NSB: 1082.30
Mu opiate receptor
  % Bound: 62%
  Mean: 897.8
  Minus NSB*: 589.80
  % Inhibition: 38%

## Cc1nc(Cc2ccc(O)cc2)c2n1C(C(C)C)C(=O)N2 (centres unmarked) [Pool 48]
Kappa opiate receptor
  % Bound: 84.653%
  % Inhibition: 15.347%
  Mean: 1784
  Minus NSB: 877.00
Mu opiate receptor
  % Bound: 44%
  Mean: 728.5
  Minus NSB*: 420.50
  % Inhibition: 56%
